A compilation of properties of binary mixtures (doi:10.1021/jp071051m)

Assay: xn = mol fraction of the nth substance listed
Details: 298.15 K, 101 kPa

CCCC[n+]1ccn(C)c1.F[P-](F)(F)(F)(F)F + CCOC(C)=O
Details | electrical conductivity [S/m] | viscosity [mPa·s]
x2 = 0 | 0.157 | 260
x2 = 0.0883 | 0.229 | 167
x2 = 0.1793 | 0.326 | 101
x2 = 0.4691 | 0.771 | 21
x2 = 0.5703 | 0.96 | 11.3
x2 = 0.6738 | 1.1 | 5.69
x2 = 0.8339 | 0.96 | 2.07

ClCCl + CCCC[n+]1ccn(C)c1.F[P-](F)(F)(F)(F)F
Details | electrical conductivity [S/m] | viscosity [mPa·s]
x1 = 0.0753 | 0.213 | 180
x1 = 0.163 | 0.294 | 129
x1 = 0.3361 | 0.533 | 58.2
x1 = 0.5384 | 0.97 | 18.7
x1 = 0.6462 | 1.24 | 9.5
x1 = 0.738 | 1.43 | 5
x1 = 0.8242 | 1.42 | 2.57
x1 = 0.8678 | 1.3 | 1.82

CCCC[n+]1ccn(C)c1.F[P-](F)(F)(F)(F)F + CC(C)=O
Details | electrical conductivity [S/m] | viscosity [mPa·s]
x2 = 0 | 0.157 | 260
x2 = 0.1006 | 0.256 | 148
x2 = 0.1935 | 0.389 | 89
x2 = 0.3033 | 0.612 | 48.4
x2 = 0.3988 | 0.89 | 27.4
x2 = 0.6016 | 1.81 | 7.36
x2 = 0.6992 | 2.38 | 3.76
x2 = 0.8433 | 3.11 | 1.34
x2 = 0.8853 | 3.12 | 1.02

CCCC[n+]1ccn(C)c1.O=C([O-])C(F)(F)F + CC#N
Details | electrical conductivity [S/m] | viscosity [mPa·s]
x2 = 0 | 0.455 | 52.9
x2 = 0.0798 | 0.562 | 42.7
x2 = 0.1769 | 0.699 | 31.7
x2 = 0.3539 | 1.05 | 17.4
x2 = 0.4443 | 1.32 | 12.1
x2 = 0.547 | 1.69 | 7.61
x2 = 0.6553 | 2.19 | 4.38
x2 = 0.7649 | 2.76 | 2.27
x2 = 0.8457 | 3.06 | 1.19
x2 = 0.8802 | 3.09 | 1.09

CCCC[n+]1ccn(C)c1.O=C([O-])C(F)(F)F + ClC(Cl)Cl
Details | electrical conductivity [S/m] | viscosity [mPa·s]
x2 = 0 | 0.455 | 52.9
x2 = 0.0918 | 0.507 | 46.4
x2 = 0.1815 | 0.558 | 40.4
x2 = 0.2793 | 0.618 | 33.7
x2 = 0.3861 | 0.692 | 25.9
x2 = 0.482 | 0.766 | 19.3
x2 = 0.5804 | 0.85 | 13
x2 = 0.6467 | 0.89 | 9.7
x2 = 0.6812 | 0.9 | 7.85
x2 = 0.729 | 0.89 | 6.06
x2 = 0.7847 | 0.826 | 4.02
x2 = 0.8677 | 0.603 | 2.02

CCCC[n+]1ccn(C)c1.O=C([O-])C(F)(F)F + O
Details | electrical conductivity [S/m] | viscosity [mPa·s]
x2 = 0 | 0.455 | 52.9
x2 = 0.1093 | 0.543 | 46.3
x2 = 0.197 | 0.619 | 40.9
x2 = 0.2888 | 0.713 | 35.5
x2 = 0.396 | 0.88 | 29.2
x2 = 0.4921 | 1.07 | 23.8
x2 = 0.5897 | 1.34 | 18.7
x2 = 0.6918 | 1.72 | 13.6
x2 = 0.7927 | 2.38 | 9
x2 = 0.884 | 3.14 | 5.13
x2 = 0.9195 | 3.34 | 3.67

CCCC[n+]1ccn(C)c1.F[P-](F)(F)(F)(F)F + ClCCl
x2 = 0
Details | electrical conductivity [S/m] | viscosity [mPa·s]
– | 0.157 | 260

CCCC[n+]1ccn(C)c1.F[P-](F)(F)(F)(F)F + c1ccncc1
Details | electrical conductivity [S/m] | viscosity [mPa·s]
x2 = 0 | 0.157 | 260
x2 = 0.0964 | 0.222 | 161
x2 = 0.1929 | 0.308 | 102
x2 = 0.291 | 0.435 | 63.4
x2 = 0.3899 | 0.599 | 38
x2 = 0.5922 | 1.11 | 12.1
x2 = 0.6978 | 1.43 | 6.35
x2 = 0.7695 | 1.63 | 3.73
x2 = 0.8372 | 1.73 | 2.42
x2 = 0.8781 | 1.68 | 1.94
